# Read-outs that look alike come from different tables or passages of the source.
# How the values were obtained:
# cyclin D1 = assay: Cyclin D1 percentage degradation in Calu-1 cells (immunoblotting); type: cell-based; conditions: 16 hours
# Summary of the method: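 Cyclin D1 degradation was assessed by western blot. Clarified lysates, obtained by RIPA lysis with inhibitors and centrifugation at 13,000 rpm, were normalized by BCA protein assay and separated by SDS-PAGE. Bands were detected with Western ECL Substrate on a Bio-Rad ChemiDoc MP Imaging system and quantified in Image Lab software to derive percentage degradation.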
# CDK4 = target: T1, CDK4 (Homo sapiens, UniProt P11802); assay: CDK4 percentage degradation in Calu-1 cells (immunoblotting); type: cell-based; conditions: for inhibition at 0.2 µM: read-out: CDK4 Degradation (200 nM); for inhibition at 10 µM: read-out: CDK4 Degradation (10 μM)
# T1 construct: endogenous in cells; host or cells: Calu-1
# Summary of the method: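 CDK4 degradation was measured by immunoblotting. Cells were washed in cold PBS and lysed in RIPA buffer with inhibitors for 30 min at 4° C., then spun at 13,000 rpm to clear. After BCA protein determination, lysates were heated at 99° C. for 5 min in Laemmli buffer, resolved on SDS-PAGE, imaged on a ChemiDoc MP with ECL substrate, and band intensities quantified.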
# T1 sequence (P11802 2-303 limits assumed): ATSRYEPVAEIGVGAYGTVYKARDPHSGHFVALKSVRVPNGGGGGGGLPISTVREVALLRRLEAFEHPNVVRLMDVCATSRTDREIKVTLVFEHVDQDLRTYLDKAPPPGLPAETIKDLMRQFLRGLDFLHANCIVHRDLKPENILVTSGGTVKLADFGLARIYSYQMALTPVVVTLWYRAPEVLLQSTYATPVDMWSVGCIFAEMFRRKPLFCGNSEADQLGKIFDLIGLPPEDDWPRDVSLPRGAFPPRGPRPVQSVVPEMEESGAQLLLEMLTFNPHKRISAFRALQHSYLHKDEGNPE
# T1 sequence (P24385 whole entry partner): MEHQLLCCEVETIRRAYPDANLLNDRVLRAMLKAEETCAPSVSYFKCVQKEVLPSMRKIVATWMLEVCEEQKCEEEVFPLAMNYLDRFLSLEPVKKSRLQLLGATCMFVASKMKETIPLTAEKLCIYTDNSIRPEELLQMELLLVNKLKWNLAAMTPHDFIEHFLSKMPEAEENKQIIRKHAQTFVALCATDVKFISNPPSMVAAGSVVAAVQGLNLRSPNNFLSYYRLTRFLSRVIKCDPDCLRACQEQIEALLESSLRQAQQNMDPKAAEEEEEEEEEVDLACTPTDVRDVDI
# T1 sequence (Q16531 2-1140 limits assumed, further chain): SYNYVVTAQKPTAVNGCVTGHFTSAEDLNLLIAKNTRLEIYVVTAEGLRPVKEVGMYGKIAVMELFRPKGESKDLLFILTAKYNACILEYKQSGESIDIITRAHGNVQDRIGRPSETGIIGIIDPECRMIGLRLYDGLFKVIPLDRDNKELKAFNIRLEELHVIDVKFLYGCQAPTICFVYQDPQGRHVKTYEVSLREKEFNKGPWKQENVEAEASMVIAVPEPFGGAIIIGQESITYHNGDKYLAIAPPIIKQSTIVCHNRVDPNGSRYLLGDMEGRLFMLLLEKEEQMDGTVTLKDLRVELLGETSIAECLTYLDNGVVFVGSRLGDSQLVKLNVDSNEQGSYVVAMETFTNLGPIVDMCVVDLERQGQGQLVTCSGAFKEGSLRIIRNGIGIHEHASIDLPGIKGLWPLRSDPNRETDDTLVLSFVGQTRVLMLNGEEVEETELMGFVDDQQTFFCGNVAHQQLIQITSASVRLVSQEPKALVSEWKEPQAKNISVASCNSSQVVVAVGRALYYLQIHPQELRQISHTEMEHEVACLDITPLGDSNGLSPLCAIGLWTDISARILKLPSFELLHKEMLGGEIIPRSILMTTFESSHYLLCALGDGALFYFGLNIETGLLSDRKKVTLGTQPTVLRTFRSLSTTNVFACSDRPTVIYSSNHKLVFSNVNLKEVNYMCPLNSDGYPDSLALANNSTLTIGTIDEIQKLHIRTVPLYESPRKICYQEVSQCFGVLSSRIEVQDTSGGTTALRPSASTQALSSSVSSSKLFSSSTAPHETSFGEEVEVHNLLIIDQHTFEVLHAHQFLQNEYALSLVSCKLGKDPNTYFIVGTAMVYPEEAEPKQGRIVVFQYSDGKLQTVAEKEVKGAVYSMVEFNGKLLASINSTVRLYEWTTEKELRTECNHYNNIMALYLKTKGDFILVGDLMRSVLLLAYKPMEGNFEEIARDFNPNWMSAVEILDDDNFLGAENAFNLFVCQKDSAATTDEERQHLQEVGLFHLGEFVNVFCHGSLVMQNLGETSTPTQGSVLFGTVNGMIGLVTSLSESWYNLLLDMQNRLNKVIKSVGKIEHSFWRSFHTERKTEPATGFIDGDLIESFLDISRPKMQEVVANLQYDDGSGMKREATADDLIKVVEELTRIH
"inhibition at 0.2 µM (CDK4; Calu-1 cells, 200 nM, 16 hours) [%]","inhibition at 10 µM (CDK4; Calu-1 cells, 16 hours) [%]",Compound,CyclinD1 Degradation (200 nM) (cyclin D1),CyclinD1 Degradation (10 μM) (cyclin D1),"inhibition at 0.2 µM (CDK4; Calu-1, 16 h) [%]"
50 to 80,,"CC(=O)c1c(C)c2cnc(Nc3ccc(N4CCN(CC(=O)NCCCCCCCNc5nc(C)ccc5C(=O)Nc5nc(C)c(C)s5)CC4)cn3)nc2n(C2CCCC2)c1=O [CPD-338, 2-((7-(2-(4-(6-((6-Acetyl-8-cyclopentyl-5-methyl-7-oxo-7,8-dihydropyrido[2,3-d]pyrimidin-2-yl)amino)pyridin-3-yl)piperazin-1-yl)acetamido)heptyl)amino)-N-(4,5-dimethylthiazol-2-yl)-6-methylnicotinamide]",A (protein percentage degradation >=80%),,
50 to 80,,"CC(=O)c1c(C)c2cnc(Nc3ccc(N4CCN(CC(=O)NCCOCCOCCC(=O)Nc5ccccc5C(=O)Nc5ccc(OC6CC6)nn5)CC4)cn3)nc2n(C2CCCC2)c1=O [CPD-350, 2-(3-(2-(2-(2-(4-(6-((6-Acetyl-8-cyclopentyl-5-methyl-7-oxo-7,8-dihydropyrido[2,3-d]pyrimidin-2-yl)amino)pyridin-3-yl)piperazin-1-yl)acetamido)ethoxy)ethoxy)propanamido)-N-(6-cyclopropoxypyridazin-3-yl)benzamide]",A (protein percentage degradation >=80%),,
50 to 80,,"CC(=O)c1c(C)c2cnc(Nc3ccc(N4CCN(CC(=O)NCCCCCCCC(=O)Nc5ccccc5C(=O)Nc5nc(C)c(C)s5)CC4)cn3)nc2n(C2CCCC2)c1=O [CPD-136, 2-(8-(2-(4-(6-((6-Acetyl-8-cyclopentyl-5-methyl-7-oxo-7,8-dihydropyrido[2,3-d]pyrimidin-2-yl)amino)pyridin-3-yl)piperazin-1-yl)acetamido)octanamido)-N-(4,5-dimethylthiazol-2-yl)benzamide]",A (protein percentage degradation >=80%),,
30 to 50,,"CC(=O)c1c(C)c2cnc(Nc3ccc(N4CCN(CC(=O)NCCCCCCCNc5ccc(C)c(C(=O)Nc6nc(C)c(C)s6)c5)CC4)cn3)nc2n(C2CCCC2)c1=O [CPD-117, 5-((7-(2-(4-(6-((6-Acetyl-8-cyclopentyl-5-methyl-7-oxo-7,8-dihydropyrido[2,3-d]pyrimidin-2-yl)amino)pyridin-3-yl)piperazin-1-yl)acetamido)heptyl)amino)-N-(4,5-dimethylthiazol-2-yl)-2-methylbenzamide]","C (protein percentage degradation <50%, and >=30%)",,
< 30,,"CC(=O)c1c(C)c2cnc(Nc3ccc(N4CCN(CC(=O)NCCOCCOCCC(=O)Nc5ccccc5C(=O)Nc5nc(C6CC6)ns5)CC4)cn3)nc2n(C2CCCC2)c1=O [CPD-059, 2-(3-(2-(2-(2-(4-(6-((6-Acetyl-8-cyclopentyl-5-methyl-7-oxo-7,8-dihydropyrido[2,3-d]pyrimidin-2-yl)amino)pyridin-3-yl)piperazin-1-yl)acetamido)ethoxy)ethoxy)propanamido)-N-(3-cyclopropyl-1,2,4-thiadiazol-5-yl)benzamide]",D (protein percentage degradation <30%),,
50 to 80,,"CC(=O)c1c(C)c2cnc(Nc3ccc(N4CCN(CC(=O)NC(C)CCCCNc5cc(Cl)ccc5C(=O)Nc5ccc(C)c(C6CC6)n5)CC4)cn3)nc2n(C2CCCC2)c1=O (centres unmarked) [CPD-379, 2-((5-(2-(4-(6-((6-Acetyl-8-cyclopentyl-5-methyl-7-oxo-7,8-dihydropyrido[2,3-d]pyrimidin-2-yl)amino)pyridin-3-yl)piperazin-1-yl)acetamido)hexyl)amino)-4-chloro-N-(6-cyclopropyl-5-methylpyridin-2-yl)benzamide]",A (protein percentage degradation >=80%),,
,30 to 50,"Cc1nc(NC(=O)c2ccccc2NC(=O)CCCCNC(=O)CN2CCN(c3ccc(Nc4ncc5cc(C(=O)N(C)C)n(C6CCCC6)c5n4)nc3)CC2)sc1C [CPD-289, 7-Cyclopentyl-2-((5-(4-(2-((5-((2-((4,5-dimethylthiazol-2-yl)carbamoyl)phenyl)amino)-5-oxopentyl)amino)-2-oxoethyl)piperazin-1-yl)pyridin-2-yl)amino)-N,N-dimethyl-7H-pyrrolo[2,3-d]pyrimidine-6-carboxamide]",,A (protein percentage degradation >= 80%),
< 30,,"CC(=O)c1c(C)c2cnc(Nc3ccc(N4CCN(CC(=O)NCCCCCNc5cccc(C(=O)Nc6nc(C)c(C)s6)c5C)CC4)cn3)nc2n(C2CCCC2)c1=O [CPD-100, 3-((5-(2-(4-(6-((6-Acetyl-8-cyclopentyl-5-methyl-7-oxo-7,8-dihydropyrido[2,3-d]pyrimidin-2-yl)amino)pyridin-3-yl)piperazin-1-yl)acetamido)pentyl)amino)-N-(4,5-dimethylthiazol-2-yl)-2-methylbenzamide]",D (protein percentage degradation <30%),,
,30 to 50,"Cc1nc(NC(=O)c2ccccc2NC(=O)CCCCCNC(=O)CN2CCN(c3ccc(Nc4ncc5cc(C(=O)N(C)C)n(C6CCCC6)c5n4)nc3)CC2)sc1C [CPD-290, 7-Cyclopentyl-2-((5-(4-(2-((6-((2-((4,5-dimethylthiazol-2-yl)carbamoyl)phenyl)amino)-6-oxohexyl)amino)-2-oxoethyl)piperazin-1-yl)pyridin-2-yl)amino)-N,N-dimethyl-7H-pyrrolo[2,3-d]pyrimidine-6-carboxamide]",,"B (protein percentage degradation < 80%, and >= 50%)",
50 to 80,,"CC(=O)c1c(C)c2cnc(Nc3ccc(N4CCN(CC(=O)NCCOCCOCCC(=O)Nc5ccc(N(C)C)cc5C(=O)Nc5nc(C)c(C)s5)CC4)cn3)nc2n(C2CCCC2)c1=O [CPD-151, 2-(3-(2-(2-(2-(4-(6-((6-Acetyl-8-cyclopentyl-5-methyl-7-oxo-7,8-dihydropyrido[2,3-d]pyrimidin-2-yl)amino)pyridin-3-yl)piperazin-1-yl)acetamido)ethoxy)ethoxy)propanamido)-5-(dimethylamino)-N-(4,5-dimethylthiazol-2-yl)benzamide]","C (protein percentage degradation <50%, and >=30%)",,
30 to 50,,"COc1cnc(NC(=O)c2ccc(NCCOCCOCCOCCOCCOCCNC(=O)CN3CCN(c4ccc(Nc5ncc6c(C)c(C(C)=O)c(=O)n(C7CCCC7)c6n5)nc4)CC3)cc2C)s1 [CPD-030, 4-((1-(4-(6-((6-Acetyl-8-cyclopentyl-5-methyl-7-oxo-7,8-dihydropyrido[2,3-d]pyrimidin-2-yl)amino)pyridin-3-yl)piperazin-1-yl)-2-oxo-6,9,12,15,18-pentaoxa-3-azaicosan-20-yl)amino)-N-(5-methoxythiazol-2-yl)-2-methylbenzamide]","B (protein percentage degradation <80%, and >=50%)",,
,< 30,"Cc1nc(NC(=O)c2ccccc2NC(=O)CCCCCCNC(=O)CN2CCN(c3ccc(Nc4ncc(F)c(-c5cc(F)c6nc(C)n(C(C)C)c6c5)n4)nc3)CC2)sc1C [CPD-305, N-(4,5-Dimethylthiazol-2-yl)-2-(7-(2-(4-(6-((5-fluoro-4-(4-fluoro-1-isopropyl-2-methyl-1H-benzo[d]imidazol-6-yl)pyrimidin-2-yl)amino)pyridin-3-yl)piperazin-1-yl)acetamido)heptanamido)benzamide]",,D (protein percentage degradation < 30%),
,< 30,"Cc1nc(NC(=O)c2ccccc2NC(=O)CCCCCNC(=O)CN2CCN(c3ccc(Nc4ncc(F)c(-c5cc(F)c6nc(C)n(C(C)C)c6c5)n4)nc3)CC2)sc1C [CPD-304, N-(4,5-Dimethylthiazol-2-yl)-2-(6-(2-(4-(6-((5-fluoro-4-(4-fluoro-1-isopropyl-2-methyl-1H-benzo[d]imidazol-6-yl)pyrimidin-2-yl)amino)pyridin-3-yl)piperazin-1-yl)acetamido)hexanamido)benzamide]",,D (protein percentage degradation < 30%),
,< 30,"Cc1nc(NC(=O)c2ccccc2NC(=O)CCOCCNC(=O)CN2CCN(c3ccc(Nc4ncc(F)c(-c5cc(F)c6nc(C)n(C(C)C)c6c5)n4)nc3)CC2)sc1C [CPD-308, N-(4,5-Dimethylthiazol-2-yl)-2-(3-(2-(2-(4-(6-((5-fluoro-4-(4-fluoro-1-isopropyl-2-methyl-1H-benzo[d]imidazol-6-yl)pyrimidin-2-yl)amino)pyridin-3-yl)piperazin-1-yl)acetamido)ethoxy)propanamido)benzamide]",,"B (protein percentage degradation < 80%, and >= 50%)",
,,"CC(=O)c1c(C)c2cnc(Nc3ccc(N4CCN(C(=O)CNc5cccc(C(=O)Nc6nc(C)c(C)s6)c5C)CC4)cn3)nc2n(C2CCCC2)c1=O [CPD-124, 3-((2-(4-(6-((6-Acetyl-8-cyclopentyl-5-methyl-7-oxo-7,8-dihydropyrido[2,3-d]pyrimidin-2-yl)amino)pyridin-3-yl)piperazin-1-yl)-2-oxoethyl)amino)-N-(4,5-dimethylthiazol-2-yl)-2-methylbenzamide]",D (protein percentage degradation <30%),,< 30
,,"CC(=O)c1c(C)c2cnc(Nc3ccc(N4CCN(CCNCCOCCOCCC(=O)Nc5ccccc5C(=O)Nc5nc(C)c(C)s5)CC4)cn3)nc2n(C2CCCC2)c1=O [CPD-187, 2-(3-(2-(2-((2-(4-(6-((6-Acetyl-8-cyclopentyl-5-methyl-7-oxo-7,8-dihydropyrido[2,3-d]pyrimidin-2-yl)amino)pyridin-3-yl)piperazin-1-yl)ethyl)amino)ethoxy)ethoxy)propanamido)-N-(4,5-dimethylthiazol-2-yl)benzamide]",D (protein percentage degradation <30%),,< 30
